From BindingDB's records for doi:10.1128/AAC.00311-07 (University of California San Francisco, 2007)
pKd: −log10 of the molar value.

Biological target: T1, Lanosterol 14-alpha demethylase (Mycobacterium tuberculosis (strain CDC 1551 / Oshkosh), UniProt P9WPP8)
T1 sequence (P9WPP8 whole entry): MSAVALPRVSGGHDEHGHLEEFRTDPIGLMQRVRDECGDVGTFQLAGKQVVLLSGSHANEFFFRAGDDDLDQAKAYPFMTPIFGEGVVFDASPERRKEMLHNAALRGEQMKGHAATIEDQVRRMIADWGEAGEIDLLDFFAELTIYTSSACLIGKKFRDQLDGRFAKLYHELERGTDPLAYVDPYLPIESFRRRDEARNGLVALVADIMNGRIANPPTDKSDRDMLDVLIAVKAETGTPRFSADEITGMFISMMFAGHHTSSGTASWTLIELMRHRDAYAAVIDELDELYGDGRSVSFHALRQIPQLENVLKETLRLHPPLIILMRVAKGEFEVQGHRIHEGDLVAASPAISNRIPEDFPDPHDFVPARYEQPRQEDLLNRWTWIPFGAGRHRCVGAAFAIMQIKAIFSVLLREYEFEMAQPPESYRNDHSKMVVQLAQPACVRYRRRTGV
Assay: Ligand Binding Assay
Conditions: pH 7.5; 37 °C
From the text: The assay was developed based on the optical spectral property of P450 enzyme to elicit both type I and type II spectral changes (350 nm through 450 nm). The concentration dependence of the changes allows the binding affinities of the ligands to be estimated. Titration data were linearized by plotting S0/deltaA against S0, where S0 is the total concentration of a ligand and deltaA is the change in absorption. The equilibrium dissociation constant (Kd) was extrapolated from the intercept of the linear plot with the S0 axis.

SMILES	pKd
O=C1c2cc(O)ccc2-c2ccc(O)cc21 [2,7-Dihydroxy-9-fluorenone]	4.43
NCC(=O)N1c2ccccc2SC2C=CC=CC21 (stereo not drawn) [1-(10,10a-dihydro-4aH-phenothiazin-10-yl)-2-aminoethan-1-one]	5.12
c1ccc(-c2c[nH]cn2)cc1	2.89
O=C(Nc1ccncc1)C1(c2ccccc2)CCOCC1 [4-phenyl-N-pyridin-4-yltetrahydro-2H-pyran-4-carboxamide]	5.12
Nc1ccc(NS(=O)(=O)c2ccc(Cl)cc2)cc1 [N-(4-aminophenyl)-4-chlorobenzene-1-sulfonamide]	5.12
C[C@]12CCC3c4ccc(O)cc4CCC3C1C[C@@H](O)[C@@H]2O (stereo partly drawn) [Epiestriol]	4.00
CCC1(C)CC(CCN)(c2ccc(OC)cc2)CCO1 (stereo not drawn) [2-[2-ethyl-4-(4-methoxyphenyl)-2-methyloxan-4-yl]ethan-1-amine]	5.12
COc1ccccc1C(CCN)c1ccco1 (stereo not drawn) [3-furan-2-yl-3-(2-methoxyphenyl)propan-1-amine]	5.12
